Legend:
Experiment in all cases: Test E
SNTLS CHAMOMILE = format: in vivo, Matricaria indora
PARK WHEAT = format: in vivo, Triticum aestivum cv. Park
ITALN. RYEGRASS = format: in vivo, Lolium multiflorum
JET RAPE = format: in vivo, Brassica napus cv. Jet Neuf
MUSTARD SPP. = format: in vivo, Brassica spp.
LAMBSQUARTER = format: in vivo, Chenopodium album
PERSN SPEEDWELL = format: in vivo, Veronica persica
KOCHIA = format: in vivo, Kochia scoparia
GREEN FOXTAIL = format: in vivo, Setaria viridis
WILD OATS = format: in vivo, Avena fatua

Measured: plant response

C=C(c1ccccc1)C(O)(Cn1cncn1)c1ccc(Cl)cc1 (stereo not shown) [Example 51, 2-(4-Chlorophenyl)-3-phenyl-1-(1H-1,2,4-triazol-1-yl)-3-buten-2-ol]
0%: SNTLS CHAMOMILE; POSTEMERGENCE 0064 GM/HA | PARK WHEAT; POSTEMERGENCE 0064 GM/HA | PARK WHEAT; POSTEMERGENCE 0125 GM/HA | PARK WHEAT; POSTEMERGENCE 0250 GM/HA | PARK WHEAT; POSTEMERGENCE 0500 GM/HA | PARK WHEAT; PREEMERGENCE 0500 GM/HA | ITALN. RYEGRASS; POSTEMERGENCE 0064 GM/HA | ITALN. RYEGRASS; POSTEMERGENCE 0500 GM/HA | ITALN. RYEGRASS; PREEMERGENCE 0500 GM/HA | JET RAPE; POSTEMERGENCE 0064 GM/HA | JET RAPE; POSTEMERGENCE 0125 GM/HA | JET RAPE; POSTEMERGENCE 0250 GM/HA | JET RAPE; PREEMERGENCE 0500 GM/HA | MUSTARD SPP.; POSTEMERGENCE 0064 GM/HA | MUSTARD SPP.; PREEMERGENCE 0500 GM/HA | LAMBSQUARTER; POSTEMERGENCE 0064 GM/HA | LAMBSQUARTER; POSTEMERGENCE 0125 GM/HA | PERSN SPEEDWELL; POSTEMERGENCE 0064 GM/HA | PERSN SPEEDWELL; POSTEMERGENCE 0125 GM/HA | KOCHIA; POSTEMERGENCE 0064 GM/HA | KOCHIA; POSTEMERGENCE 0125 GM/HA | KOCHIA; POSTEMERGENCE 0250 GM/HA | KOCHIA; POSTEMERGENCE 0500 GM/HA | GREEN FOXTAIL; POSTEMERGENCE 0064 GM/HA | GREEN FOXTAIL; POSTEMERGENCE 0125 GM/HA | GREEN FOXTAIL; POSTEMERGENCE 0250 GM/HA | GREEN FOXTAIL; POSTEMERGENCE 0500 GM/HA | WILD OATS; POSTEMERGENCE 0064 GM/HA | WILD OATS; POSTEMERGENCE 0125 GM/HA | WILD OATS; POSTEMERGENCE 0250 GM/HA | WILD OATS; POSTEMERGENCE 0500 GM/HA
70%: KOCHIA; PREEMERGENCE 0500 GM/HA
100%: SNTLS CHAMOMILE; PREEMERGENCE 0500 GM/HA | LAMBSQUARTER; PREEMERGENCE 0500 GM/HA | GREEN FOXTAIL; PREEMERGENCE 0500 GM/HA
60%: SNTLS CHAMOMILE; POSTEMERGENCE 0500 GM/HA
30%: MUSTARD SPP.; POSTEMERGENCE 0125 GM/HA | MUSTARD SPP.; POSTEMERGENCE 0250 GM/HA | MUSTARD SPP.; POSTEMERGENCE 0500 GM/HA
20%: SNTLS CHAMOMILE; POSTEMERGENCE 0125 GM/HA | ITALN. RYEGRASS; POSTEMERGENCE 0125 GM/HA | ITALN. RYEGRASS; POSTEMERGENCE 0250 GM/HA | JET RAPE; POSTEMERGENCE 0500 GM/HA | LAMBSQUARTER; POSTEMERGENCE 0250 GM/HA | PERSN SPEEDWELL; POSTEMERGENCE 0250 GM/HA | PERSN SPEEDWELL; PREEMERGENCE 0500 GM/HA | WILD OATS; PREEMERGENCE 0500 GM/HA
40%: SNTLS CHAMOMILE; POSTEMERGENCE 0250 GM/HA | LAMBSQUARTER; POSTEMERGENCE 0500 GM/HA | PERSN SPEEDWELL; POSTEMERGENCE 0500 GM/HA

C=C(c1ccccc1)C(O)(Cn1cncn1)c1ccc(F)cc1F (stereo not shown) [Example 52, 2-(2,4-Difluorophenyl)-3-phenyl-1-(1H-1,2,4-triazol-1-yl)-3-buten-2-ol]
20%: SNTLS CHAMOMILE; POSTEMERGENCE 0064 GM/HA | ITALN. RYEGRASS; POSTEMERGENCE 0125 GM/HA | JET RAPE; POSTEMERGENCE 0250 GM/HA | JET RAPE; PREEMERGENCE 0250 GM/HA | MUSTARD SPP.; POSTEMERGENCE 0250 GM/HA | WILD OATS; POSTEMERGENCE 0250 GM/HA
0%: ITALN. RYEGRASS; POSTEMERGENCE 0064 GM/HA | JET RAPE; POSTEMERGENCE 0064 GM/HA | JET RAPE; POSTEMERGENCE 0125 GM/HA | MUSTARD SPP.; POSTEMERGENCE 0064 GM/HA | MUSTARD SPP.; POSTEMERGENCE 0125 GM/HA | LAMBSQUARTER; POSTEMERGENCE 0064 GM/HA | LAMBSQUARTER; POSTEMERGENCE 0125 GM/HA | LAMBSQUARTER; POSTEMERGENCE 0250 GM/HA | KOCHIA; POSTEMERGENCE 0064 GM/HA | KOCHIA; POSTEMERGENCE 0125 GM/HA | KOCHIA; POSTEMERGENCE 0250 GM/HA | KOCHIA; PREEMERGENCE 0250 GM/HA | GREEN FOXTAIL; POSTEMERGENCE 0064 GM/HA | GREEN FOXTAIL; POSTEMERGENCE 0125 GM/HA | WILD OATS; POSTEMERGENCE 0064 GM/HA | WILD OATS; POSTEMERGENCE 0125 GM/HA
10%: LAMBSQUARTER; POSTEMERGENCE 0500 GM/HA
85%: SNTLS CHAMOMILE; POSTEMERGENCE 0500 GM/HA
60%: PERSN SPEEDWELL; POSTEMERGENCE 0250 GM/HA
80%: ITALN. RYEGRASS; POSTEMERGENCE 0500 GM/HA
50%: SNTLS CHAMOMILE; POSTEMERGENCE 0125 GM/HA | SNTLS CHAMOMILE; POSTEMERGENCE 0250 GM/HA | PARK WHEAT; POSTEMERGENCE 0500 GM/HA | ITALN. RYEGRASS; POSTEMERGENCE 0250 GM/HA | MUSTARD SPP.; POSTEMERGENCE 0500 GM/HA | MUSTARD SPP.; PREEMERGENCE 0250 GM/HA
100%: SNTLS CHAMOMILE; PREEMERGENCE 0250 GM/HA | LAMBSQUARTER; PREEMERGENCE 0250 GM/HA | PERSN SPEEDWELL; PREEMERGENCE 0250 GM/HA | GREEN FOXTAIL; PREEMERGENCE 0250 GM/HA
40%: PARK WHEAT; POSTEMERGENCE 0250 GM/HA | JET RAPE; POSTEMERGENCE 0500 GM/HA | PERSN SPEEDWELL; POSTEMERGENCE 0064 GM/HA | GREEN FOXTAIL; POSTEMERGENCE 0250 GM/HA
90%: PERSN SPEEDWELL; POSTEMERGENCE 0500 GM/HA
70%: PARK WHEAT; PREEMERGENCE 0250 GM/HA | ITALN. RYEGRASS; PREEMERGENCE 0250 GM/HA | KOCHIA; POSTEMERGENCE 0500 GM/HA | WILD OATS; PREEMERGENCE 0250 GM/HA
75%: GREEN FOXTAIL; POSTEMERGENCE 0500 GM/HA
30%: PARK WHEAT; POSTEMERGENCE 0064 GM/HA | PARK WHEAT; POSTEMERGENCE 0125 GM/HA | PERSN SPEEDWELL; POSTEMERGENCE 0125 GM/HA | WILD OATS; POSTEMERGENCE 0500 GM/HA

C=C(c1ccc(Cl)cc1Cl)C(O)(Cn1cncn1)c1ccccc1F (stereo not shown) [Example 107]
30%: PARK WHEAT; PREEMERGENCE 0250 GM/HA | JET RAPE; PREEMERGENCE 0250 GM/HA
70%: SNTLS CHAMOMILE; PREEMERGENCE 0250 GM/HA
0%: ITALN. RYEGRASS; PREEMERGENCE 0250 GM/HA | KOCHIA; PREEMERGENCE 0250 GM/HA | WILD OATS; PREEMERGENCE 0250 GM/HA
20%: MUSTARD SPP.; PREEMERGENCE 0250 GM/HA
90%: LAMBSQUARTER; PREEMERGENCE 0250 GM/HA
100%: PERSN SPEEDWELL; PREEMERGENCE 0250 GM/HA | GREEN FOXTAIL; PREEMERGENCE 0250 GM/HA

C=C(c1ccc(F)cc1)C(O)(Cn1cncn1)c1ccccc1F (stereo not shown) [Example 644]
0%: PARK WHEAT; POSTEMERGENCE 0064 GM/HA | ITALN. RYEGRASS; POSTEMERGENCE 0064 GM/HA | ITALN. RYEGRASS; PREEMERGENCE 0500 GM/HA | JET RAPE; POSTEMERGENCE 0064 GM/HA | JET RAPE; POSTEMERGENCE 0125 GM/HA | JET RAPE; POSTEMERGENCE 0250 GM/HA | MUSTARD SPP.; PREEMERGENCE 0500 GM/HA | LAMBSQUARTER; POSTEMERGENCE 0064 GM/HA | LAMBSQUARTER; POSTEMERGENCE 0125 GM/HA | PERSN SPEEDWELL; POSTEMERGENCE 0064 GM/HA | KOCHIA; POSTEMERGENCE 0064 GM/HA | KOCHIA; POSTEMERGENCE 0125 GM/HA | WILD OATS; POSTEMERGENCE 0064 GM/HA | WILD OATS; POSTEMERGENCE 0125 GM/HA
80%: PERSN SPEEDWELL; POSTEMERGENCE 0500 GM/HA
30%: PARK WHEAT; POSTEMERGENCE 0250 GM/HA | PARK WHEAT; PREEMERGENCE 0500 GM/HA | JET RAPE; POSTEMERGENCE 0500 GM/HA | GREEN FOXTAIL; POSTEMERGENCE 0064 GM/HA | GREEN FOXTAIL; POSTEMERGENCE 0125 GM/HA
50%: SNTLS CHAMOMILE; POSTEMERGENCE 0125 GM/HA | SNTLS CHAMOMILE; POSTEMERGENCE 0250 GM/HA | ITALN. RYEGRASS; POSTEMERGENCE 0250 GM/HA | MUSTARD SPP.; POSTEMERGENCE 0250 GM/HA | MUSTARD SPP.; POSTEMERGENCE 0500 GM/HA | PERSN SPEEDWELL; PREEMERGENCE 0500 GM/HA | KOCHIA; POSTEMERGENCE 0250 GM/HA | GREEN FOXTAIL; POSTEMERGENCE 0250 GM/HA | GREEN FOXTAIL; POSTEMERGENCE 0500 GM/HA
85%: LAMBSQUARTER; PREEMERGENCE 0500 GM/HA
70%: KOCHIA; POSTEMERGENCE 0500 GM/HA
90%: SNTLS CHAMOMILE; POSTEMERGENCE 0500 GM/HA
20%: SNTLS CHAMOMILE; POSTEMERGENCE 0064 GM/HA | PARK WHEAT; POSTEMERGENCE 0125 GM/HA | ITALN. RYEGRASS; POSTEMERGENCE 0125 GM/HA | JET RAPE; PREEMERGENCE 0500 GM/HA | MUSTARD SPP.; POSTEMERGENCE 0064 GM/HA | MUSTARD SPP.; POSTEMERGENCE 0125 GM/HA | LAMBSQUARTER; POSTEMERGENCE 0250 GM/HA | PERSN SPEEDWELL; POSTEMERGENCE 0125 GM/HA | WILD OATS; POSTEMERGENCE 0250 GM/HA | WILD OATS; POSTEMERGENCE 0500 GM/HA | WILD OATS; PREEMERGENCE 0500 GM/HA
40%: PARK WHEAT; POSTEMERGENCE 0500 GM/HA | ITALN. RYEGRASS; POSTEMERGENCE 0500 GM/HA | LAMBSQUARTER; POSTEMERGENCE 0500 GM/HA | PERSN SPEEDWELL; POSTEMERGENCE 0250 GM/HA
100%: SNTLS CHAMOMILE; PREEMERGENCE 0500 GM/HA | KOCHIA; PREEMERGENCE 0500 GM/HA | GREEN FOXTAIL; PREEMERGENCE 0500 GM/HA

Reference: patent publication US4965280A, “Antifungal carbinols” (E. I. Du Pont de Nemours and Company, priority 1989, dated 1990)
